Measurements: US9499550B2 (BRISTOL-MYERS SQUIBB COMPANY, priority 2012, dated 2016)
Where two headings read alike, the source gives them in different places.

How the values were obtained:
[1] = tested on: HCV genotype 1a (H77 strain) replicon in HUH-7 cells; assay: HCV replicon luciferase reporter assay, genotype 1a; format: cell-based; conditions: Hepatitis C virus, Huh-7, 72 h, 3 days incubation
Procedure, shortened: (§1)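 Replicon inhibition for both genotypes was measured as Renilla luciferase signal (EnduRen, 7.5 μM final, 2 h) after 3-day, 37° C exposure of replicon-bearing HUH-7 cells in 4% FCS DMEM, 0.5% DMSO. The 1b construct carries S1179I; the 1a H77 construct carries P1496L and S2204I. Twenty-point, 3-fold dilutions were fitted four-parametrically for EC50, and CC50 was taken from multiplexed Cell Titer-Blue.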

[2] = tested on: HCV genotype 1b (Con1) replicon in HUH-7 cells; assay: HCV replicon luciferase reporter assay, genotype 1b; format: cell-based; conditions: Hepatitis C virus, Huh-7, 72 h, 3 days incubation
Procedure, shortened: as §1

[3] = HCV genotype 1a replicon luciferase assay, range class, read-out: LE_1a (EC50, range)
[4] = HCV genotype 1b replicon luciferase assay, range class, read-out: LE_1b (EC50, range)
[5] = HCV genotype 1a replicon luciferase, read-out: LE_1a (EC50, range)
[6] = HCV genotype 1b replicon luciferase, read-out: LE_1b (EC50, range)

Compound	EC50 [1, 3]	EC50 [2, 4]	EC50 [1, 5]	EC50 [2, 6]	further results
C[C@H]1CC/C=C\[C@@H]2C[C@@]2(C(=O)NS(=O)(=O)C2CC2)NC(=O)[C@@H]2C[C@@H](Oc3nc(OCC(F)F)cc4c(Cl)cccc34)CN2C(=O)[C@@H](NC(=O)O[C@H](C)C(F)(F)F)[C@H](C)C1 [Compound 1099, (R)-1,1,1-trifluoropropan-2-yl ((2R,6S,7R,9S,13aS,14aR,16aS,Z)-2-((5-chloro-3-(2,2-difluoroethoxyl)isoquinolin-1-yl)oxy)-14a-((cyclopropylsulfonyl)carbamoyl)-7,9-dimethyl-5,16-dioxo-1,2,3,5,6,7,8,9,10,11,13a,14,14a,15,16,16a-hexadecahydrocyclopropa[e]pyrrolo[1,2-a][1,4]diazacyclopentadecin-6-yl)carbamate]	< 5.46 nM	< 5.46 nM	–	–	–
COc1ccc2c(O[C@@H]3C[C@H]4C(=O)N[C@]5(C(=O)NS(=O)(=O)C6CC6)C[C@H]5/C=C\CC[C@H](C)C[C@@H](C)[C@H](NC(=O)O[C@H](C)C(F)(F)F)C(=O)N4C3)nc(-c3ccc(OC(C)C)c(F)c3)cc2c1 [Compound 3073, (R)-1,1,1-trifluoropropan-2-yl ((2R,6S,7R,9S,13aS,14aR,16aS,Z)-14a-((cyclopropylsulfonyl)carbamoyl)-2-((3-(3-fluoro-4-isopropoxyphenyl)-6-methoxyisoquinolin-1-yl)oxy)-7,9-dimethyl-5,16-dioxo-1,2,3,5,6,7,8,9,10,11,13a,14,14a,15,16,16a-hexadecahydrocyclopropa[e]pyrrolo[1,2-a][1,4]diazacyclopentadecin-6-yl)carbamate]	4.82 to 103 nM	< 5.46 nM	–	–	–
COc1ccc2c(O[C@@H]3C[C@H]4C(=O)N[C@]5(C(=O)NS(=O)(=O)C6CC6)C[C@H]5/C=C\CC[C@H](C)C[C@@H](C)[C@H](NC(=O)OCC5(C)CC5)C(=O)N4C3)nc(-c3ccc(OC(C)C)c(F)c3)cc2c1 [Compound 3065, (1-methylcyclopropyl)methyl ((2R,6S,7R,9S,13aS,14aR,16aS,Z)-14a-((cyclopropylsulfonyl)carbamoyl)-2-((3-(3-fluoro-4-isopropoxyphenyl)-6-methoxyisoquinolin-1-yl)oxy)-7,9-dimethyl-5,16-dioxo-1,2,3,5,6,7,8,9,10,11,13a,14,14a,15,16,16a-hexadecahydrocyclopropa[e]pyrrolo[1,2-a][1,4]diazacyclopentadecin-6-yl)carbamate]	4.82 to 103 nM	< 5.46 nM	–	–	–
CC[C@@H]1C[C@@H](C)CC/C=C\[C@@H]2C[C@@]2(C(=O)NS(=O)(=O)C2(C)CC2)NC(=O)[C@@H]2C[C@@H](Oc3nccc4c5c(ccc34)OCCO5)CN2C(=O)[C@H]1NC(=O)OC(C)(C)C(F)(F)F [Compound 5333, 1,1,1-trifluoro-2-methylpropan-2-yl((2R,6S,7R,9S,13aS,14aR,16aS,Z)-2-((2,3-dihydro-[1,4]dioxino[2,3-f]isoquinolin-7-yl)oxy)-7-ethyl-9-methyl-14a-(((1-methylcyclopropyl)sulfonyl)carbamoyl)-5,16-dioxo-1,2,3,5,6,7,8,9,10,11,13a,14,14a,15,16,16a-hexadecahydrocyclopropa[e]pyrrolo[1,2-a][1,4]diazacyclopentadecin-6-yl)carbamate]	–	–	4.82 to 103 nM	4.82 to 103 nM	–
C[C@H]1CC/C=C\[C@@H]2C[C@@]2(C(=O)NS(=O)(=O)C2(C)CC2)NC(=O)[C@@H]2C[C@@H](Oc3nccc4c5c(ccc34)N(C)CCO5)CN2C(=O)[C@@H](NC(=O)OC(C)(C)C(F)(F)F)[C@H](C)C1 [Compound 5295, 1,1,1-trifluoro-2-methylpropan-2-yl((2R,6S,7R,9S,13aS,14aR,16aS,Z)-7,9-dimethyl-2-((4-methyl-3,4-dihydro-2H-[1,4]oxazino[2,3-f]isoquinolin-7-yl)oxy)-14a-(((1-methylcyclopropyl)sulfonyl)carbamoyl)-5,16-dioxo-1,2,3,5,6,7,8,9,10,11,13a,14,14a,15,16,16a-hexadecahydrocyclopropa[e]pyrrolo[1,2-a][1,4]diazacyclopentadecin-6-yl)carbamate]	–	–	4.82 to 103 nM	< 5.46 nM	–
CC[C@@H]1C[C@H](C)CC/C=C\[C@@H]2C[C@@]2(C(=O)NS(=O)(=O)C2CC2)NC(=O)[C@@H]2C[C@@H](Oc3ncnc4cc(OC)ccc34)CN2C(=O)[C@H]1NC(=O)OC(C)(C)C(F)(F)F [Compound 4189]	–	–	–	–	EC50 ([1]; GETYPE1A, HCV genotype 1a replicon luciferase, read-out: LE_1a (EC50, range)): < 5.46 nM; EC50 ([2]; GETYPE1B, HCV genotype 1b replicon luciferase, read-out: LE_1b (EC50, range)): < 5.46 nM
CC(C)Oc1cc2c(Cl)cccc2c(O[C@@H]2C[C@H]3C(=O)N[C@]4(C(=O)NS(=O)(=O)C5CC5)C[C@H]4/C=C\CC[C@@H](C)C[C@@H](C)[C@H](NC(=O)OC(C)(C)C)C(=O)N3C2)n1 [Compound 1092, tert-butyl ((2R,6S,7R,9R,13aS,14aR,16aS,Z)-2-((5-chloro-3-isopropoxyisoquinolin-1-yl)oxy)-14a-((cyclopropylsulfonyl)carbamoyl)-7,9-dimethyl-5,16-dioxo-1,2,3,5,6,7,8,9,10,11,13a,14,14a,15,16,16a-hexadecahydrocyclopropa[e]pyrrolo[1,2-a][1,4]diazacyclopentadecin-6-yl)carbamate]	< 5.46 nM	< 5.46 nM	–	–	–
COc1cc2cc(-c3ccc(OC(C)C)cc3)nc(O[C@@H]3C[C@H]4C(=O)N[C@]5(C(=O)NS(=O)(=O)C6(C)CC6)C[C@H]5/C=C\CC[C@@H](C)C[C@@H](C)[C@H](NC(=O)OC(C)(C)C)C(=O)N4C3)c2cc1F [Compound 3184, tert-butyl ((2R,6S,7R,9R,13aS,14aR,16aS,Z)-2-((7-fluoro-3-(4-isopropoxyphenyl)-6-methoxyisoquinolin-1-yl)oxy)-7,9-dimethyl-14a-(((1-methylcyclopropyl)sulfonyl)carbamoyl)-5,16-dioxo-1,2,3,5,6,7,8,9,10,11,13a,14,14a,15,16,16a-hexadecahydrocyclopropa[e]pyrrolo[1,2-a][1,4]diazacyclopentadecin-6-yl)carbamate]	< 5.46 nM	< 5.46 nM	–	–	EC50 ([1]; HCV genotype 1a replicon luciferase assay, read-out: LE_1a (EC50)): 2.78 nM; EC50 ([2]; HCV genotype 1b replicon luciferase assay, read-out: LE_1b (EC50)): 1.26 nM
CCn1nc(O[C@@H]2C[C@H]3C(=O)N[C@]4(C(=O)NS(=O)(=O)C5(C)CC5)C[C@H]4/C=C\CC[C@@H](C)C[C@@H](C)[C@H](NC(=O)OC(C)(C)C(F)(F)F)C(=O)N3C2)c2ccccc2c1=O [Compound 5053, 1,1,1-trifluoro-2-methylpropan-2-yl((2R,6S,7R,9R,13aS,14aR,16aS,Z)-2-((3-ethyl-4-oxo-3,4-dihydrophthalazin-1-yl)oxy)-7,9-dimethyl-14a-(((1-methylcyclopropyl)sulfonyl)carbamoyl)-5,16-dioxo-1,2,3,5,6,7,8,9,10,11,13a,14,14a,15,16,16a-hexadecahydrocyclopropa[e]pyrrolo[1,2-a][1,4]diazacyclopentadecin-6-yl)carbamate]	–	–	4.82 to 103 nM	< 5.46 nM	–
COc1ccc2c(O[C@@H]3C[C@H]4C(=O)N[C@]5(C(=O)NS(=O)(=O)C6CC6)C[C@H]5/C=C\CC[C@@H](C)C[C@@H](C)[C@H](NC(=O)OC(C)(C)C(F)(F)F)C(=O)N4C3)nc(-c3ccc(OC)c(Cl)c3)cc2c1 [Compound 3052, 1,1,1-trifluoro-2-methylpropan-2-yl((2R,6S,7R,9R,13aS,14aR,16aS,Z)-2-((3-(3-chloro-4-methoxyphenyl)-6-methoxyisoquinolin-1-yl)oxy)-14a-((cyclopropylsulfonyl)carbamoyl)-7,9-dimethyl-5,16-dioxo-1,2,3,5,6,7,8,9,10,11,13a,14,14a,15,16,16a-hexadecahydrocyclopropa[e]pyrrolo[1,2-a][1,4]diazacyclopentadecin-6-yl)carbamate]	< 5.46 nM	< 5.46 nM	–	–	–
CCOc1nnc(O[C@@H]2C[C@H]3C(=O)N[C@]4(C(=O)NS(=O)(=O)C5(C)CC5)C[C@H]4/C=C\CC[C@@H](C)C[C@@H](CC)[C@H](NC(=O)OC(C)(C)C(F)(F)F)C(=O)N3C2)c2ccccc12 [Compound 5049, 1,1,1-trifluoro-2-methylpropan-2-yl((2R,6S,7R,9R,13aS,14aR,16aS,Z)-2-((4-ethoxyphthalazin-1-yl)oxy)-7-ethyl-9-methyl-14a-(((1-methylcyclopropyl)sulfonyl)carbamoyl)-5,16-dioxo-1,2,3,5,6,7,8,9,10,11,13a,14,14a,15,16,16a-hexadecahydrocyclopropa[e]pyrrolo[1,2-a][1,4]diazacyclopentadecin-6-yl)carbamate]	–	–	< 5.46 nM	< 5.46 nM	–
COc1ccc2c(O[C@@H]3C[C@H]4C(=O)N[C@]5(C(=O)NS(=O)(=O)C6CC6)C[C@H]5/C=C\CC[C@@H](C)C[C@@H](C)[C@H](NC(=O)O[C@@H]5C[C@@H]6C[C@@H]6C5)C(=O)N4C3)nc(N3CCOCC3)cc2c1 [Compound 3105, (1R,3r,5S)-bicyclo[3.1.0]hexan-3-yl((2R,6S,7R,9R,13aS,14aR,16aS,Z)-14a-((cyclopropylsulfonyl)carbamoyl)-2-((6-methoxy-3-morpholinoisoquinolin-1-yl)oxy)-7,9-dimethyl-5,16-dioxo-1,2,3,5,6,7,8,9,10,11,13a,14,14a,15,16,16a-hexadecahydrocyclopropa[e]pyrrolo[1,2-a][1,4]diazacyclopentadecin-6-yl)carbamate]	< 5.46 nM	< 5.46 nM	–	–	–
